Experimental data published in DBAASP.
≈ marks a conversion by molar mass, not a printed value. Where “and” joins values, the source holds several entries; their conditions need not be identical. Identical values can stand only once.

Tests used:
Test in all cases: ≥ marks a high value that may be exact or a test limit, other limits are often not marked, values filed in µg/mL are converted to µM
[1] = system: Staphylococcus aureus SPM 101
Escherichia coli SPE 001 = system: Escherichia coli SPE 001
[2] = system: Pseudomonas sp. ATCC 15915
Escherichia coli BL2 = system: Escherichia coli BL2
[3] = system: Micrococcus luteus ATCC 7468
[4] = system: Acinetobacter baumannii ATCC 15308
[5] = system: Staphylococcus aureus ATCC 502A
[6] = system: Enterococcus faecium ATCC 19434
Xanthomonas citri = system: Xanthomonas citri
Methylobacterium sp. = system: Methylobacterium sp.
[7] = system: Sinorhizobium meliloti USDA 1002
[8] = system: Klebsiella pneumoniae DSM 681
[9] = system: Pseudomonas aeruginosa DSM 1128
[10] = system: Staphylococcus aureus ATCC 25923
[11] = system: Escherichia coli DSM 1103
[12] = system: Streptococcus pneumoniae DSM 11865
[13] = system: Pseudomonas corrugata DSM 7228
[14] = system: Pectobacterium carotovorum subsp. carotovorum DSM 30168
[15] = system: Pseudomonas syringae pv. tomato DC3000
Botrytis cinerea = system: Botrytis cinerea
[16] = system: Pseudomonas syringae pv. syringae DSM 10604
Cladosporium herbarum = system: Cladosporium herbarum
[17] = system: Xanthomonas vesicatoria DSM 50861
Alternaria alternata = system: Alternaria alternata
[18] = system: Staphylococcus aureus 90857
[19] = system: Clavibacter michiganensis subsp. michiganensis DSM 46294
[20] = system: Staphylococcus aureus ATCC 43300
[21] = system: Staphylococcus aureus MTCC 9542
Vibrio cholerae = system: Vibrio cholerae
[22] = system: Bacillus subtilis MTCC 14416
Escherichia coli MG1655 = system: Escherichia coli MG1655
[23] = system: Enterococcus faecalis ATCC 29212
Staphylococcus aureus = system: Staphylococcus aureus
[24] = system: Enterococcus casseliflavus
[25] = system: Escherichia coli ATCC 27325
[26] = system: Salmonella typhimurium KCTC 2370
Enterococcus faecium = system: Enterococcus faecium
Enterococcus gallinarum = system: Enterococcus gallinarum
[27] = system: Saccharomyces cerevisiae ATCC 44774
[28] = system: Bacillus subtilis KCTC 3038

Compound `CC(C)C[C@H](NC(=O)[C@H](CCCCN)NC(=O)[C@H](CC(C)C)NC(=O)[C@H](CC(C)C)NC(=O)[C@H](CC(C)C)NC(=O)[C@H](CC(C)C)NC(=O)[C@H](CCCCN)NC(=O)[C@H](CC(C)C)NC(=O)[C@@H](N)CCCCN)C(=O)N[C@@H](CCCCN)C(N)=O` [KLKLLLLKLK] has an MIC [1] of 1.65 µM (≈ 2 µg/mL) and an MIC (Escherichia coli SPE 001) of 26.5 µM (≈ 32 µg/mL).

Compound `CC[C@H](C)[C@H](NC(=O)[C@H](C)NC(=O)[C@H](Cc1ccccc1)NC(=O)[C@H](Cc1c[nH]c2ccccc12)NC(=O)[C@H](CCC(N)=O)NC(=O)[C@H](C)NC(=O)[C@H](CCCN=C(N)N)NC(=O)[C@@H](NC(=O)[C@H](Cc1ccccc1)NC(=O)[C@H](CCC(N)=O)NC(=O)[C@@H]1CCCN1C(=O)[C@@H]1CCCN1C(=O)[C@@H](N)CCCN=C(N)N)[C@@H](C)O)C(=O)N[C@@H](CCC(N)=O)C(=O)N[C@@H](Cc1cnc[nH]1)C(=O)N[C@H](C(=O)N[C@@H](CO)C(=O)N[C@@H](CC(C)C)C(=O)N[C@@H](CC(N)=O)C(=O)O)[C@@H](C)CC` [RPPQFTRAQWFAIQHISLN] has an MIC [2] of 10 µM (≈ 23.1 µg/mL), an MIC (Escherichia coli BL2) of 10 µM (≈ 23.1 µg/mL) and an MIC [3] of 10 µM (≈ 23.1 µg/mL). It also gave an MIC [4] of 10 µM (≈ 23.1 µg/mL), an MIC [5] of 10 µM (≈ 23.1 µg/mL) and an MIC [6] of 10 µM (≈ 23.1 µg/mL).

`CC[C@H](C)[C@H](NC(=O)[C@H](C)NC(=O)CNC(=O)[C@H](Cc1ccccc1)NC(=O)[C@@H](NC(=O)[C@@H](N)CCCCN)[C@@H](C)CC)C(=O)N[C@@H](Cc1c[nH]c2ccccc12)C(=O)N1CCC[C@H]1C(=O)N[C@@H](CC(C)C)C(=O)N[C@@H](C)C(=O)N[C@@H](CC(C)C)C(=O)NCC(=O)N[C@@H](C)C(=O)N[C@@H](CC(C)C)C(=O)N[C@@H](CCCCN)C(=O)N[C@@H](CC(N)=O)C(=O)N[C@@H](CC(C)C)C(=O)N[C@H](C(=O)N[C@@H](CCCCN)C(=O)O)[C@@H](C)CC` [KIFGAIWPLALGALKNLIK] gave an MIC (Xanthomonas citri) of 2 µM (≈ 4.13 µg/mL), an MIC (Methylobacterium sp.) of 4 µM (≈ 8.27 µg/mL) and an MIC [7] of 4 µM (≈ 8.27 µg/mL).

Work on `CC(C)C[C@H](NC(=O)[C@@H](NC(=O)[C@H](C)NC(=O)[C@H](Cc1c[nH]c2ccccc12)NC(=O)[C@H](CCCN=C(N)N)NC(=O)CNC(=O)CNC(=O)[C@H](CCCN=C(N)N)NC(=O)[C@@H](NC(=O)[C@H](CCCN=C(N)N)NC(=O)[C@H](Cc1c[nH]c2ccccc12)NC(=O)[C@H](Cc1ccc(O)cc1)NC(=O)[C@H](Cc1ccc(O)cc1)NC(=O)[C@H](CCCCN)NC(=O)[C@H](CCC(N)=O)NC(=O)[C@@H](N)CC(C)C)C(C)C)C(C)C)C(=O)N[C@@H](CO)C(=O)O` [LQKYYWRVRGGRWAVLS] yielded an MIC [8] of at least 140 µM, an MIC [9] of at least 140 µM and an MIC [10] of 70.1 µM (≈ 150 µg/mL). For the same compound, the MIC [11] was at least 140 µM and the MIC [12] was at least 140 µM.

Compound `CC[C@H](C)[C@H](NC(=O)[C@H](CCCCN)NC(=O)[C@H](CCCCN)NC(=O)[C@H](CC(C)C)NC(=O)[C@H](Cc1ccccc1)NC(=O)[C@H](CCCN=C(N)N)NC(=O)[C@@H](N)CC(C)C)C(=O)N[C@@H](CC(C)C)C(=O)N[C@@H](CCCCN)C(=O)N[C@@H](Cc1cnc[nH]1)C(=O)N[C@@H](CC(C)C)C(=O)N[C@@H](Cc1ccccc1)C(N)=O` [LRFLKKILKHLF] has an MIC [13] of 12.9 µM (≈ 20 µg/mL), an MIC [14] of 12.9 µM (≈ 20 µg/mL) and an MIC [15] of 6.43 µM (≈ 9.99 µg/mL). The MIC (Botrytis cinerea) was at least 64.3 µM, the MIC [16] was 6.43 µM (≈ 9.99 µg/mL) and the MIC (Cladosporium herbarum) was 6.43 µM (≈ 9.99 µg/mL). For the same compound, the MIC [17] was 3.21 µM (≈ 5 µg/mL), the MIC (Alternaria alternata) was at least 64.3 µM and the MIC [18] was 1.5 µM (≈ 2.33 µg/mL). It also gave an MIC [19] of 6.43 µM (≈ 9.99 µg/mL).

Work on `CC[C@H](C)[C@H](NC(=O)[C@H](C)NC(=O)[C@H](CS)NC(=O)[C@H](Cc1ccccc1)NC(=O)[C@@H](NC(=O)[C@H](CCCCN)NC(=O)[C@@H]1CCCN1C(=O)[C@H](CC(C)C)NC(=O)[C@H](Cc1ccccc1)NC(=O)[C@H](CCCCN)NC(=O)[C@H](C)NC(=O)[C@H](C)NC(=O)[C@H](CCSC)NC(=O)CNC(=O)[C@H](C)NC(=O)[C@@H](NC(=O)[C@H](Cc1ccccc1)NC(=O)[C@@H]1CCCN1C(=O)[C@H](CC(C)C)NC(=O)[C@@H](N)Cc1ccccc1)[C@@H](C)CC)[C@@H](C)CC)C(=O)N[C@@H](CO)C(=O)N[C@@H](CCCCN)C(=O)N[C@@H](CCCCN)C(N)=O` [FLPFIAGMAAKFLPKIFCAISKK] yielded an MIC [20] of 2.46 µM (≈ 6.25 µg/mL), an MIC [21] of 9.83 µM (≈ 25 µg/mL) and an MIC (Vibrio cholerae) of 9.83 µM (≈ 25 µg/mL). For the same compound, the MIC [22] was 9.83 µM (≈ 25 µg/mL), the MIC (Escherichia coli MG1655) was 7.87 µM (≈ 20 µg/mL) and the MIC [23] was 9.83 µM (≈ 25 µg/mL).

`CC(C)[C@H](NC(=O)[C@H](CCCCN)NC(=O)[C@H](CCC(N)=O)NC(=O)[C@H](CCCCN)NC(=O)[C@@H](NC(=O)[C@@H](NC(=O)[C@H](CCC(N)=O)NC(=O)[C@@H](NC(=O)[C@@H](NC(=O)[C@@H]1CCCN1C(=O)[C@H](CCCN=C(N)N)NC(=O)[C@@H](NC(=O)[C@@H](NC(=O)[C@@H](N)CCCN=C(N)N)C(C)C)C(C)C)C(C)C)C(C)C)C(C)C)C(C)C)C(=O)N[C@@H](CCCN=C(N)N)C(=O)O` [RVVRPVVQVVKQKVR] was tested, and the MIC (Staphylococcus aureus) was over 35.8 µM, the MIC [24] was 1.12 µM (≈ 2 µg/mL) and the MIC [25] was 17.9 µM and ≥ 35.8 µM. For the same compound, the MIC [26] was at least 35.8 µM, the MIC (Enterococcus faecium) was 2.23 µM (≈ 4 µg/mL) and the MIC (Enterococcus gallinarum) was at least 35.8 µM. It also gave an MIC [27] of 1.12 µM (≈ 2 µg/mL), an MIC [28] of 8.94 µM (≈ 16 µg/mL) and an MIC [23] of 4.47 µM (≈ 8 µg/mL).
